# Reference: patent US11414436B2, “Non-coordinating anion type activators containing cation having large alkyl groups” (ExxonMobil Chemical Patents Inc., priority 2018, dated 2022)
# Several values for one entry are separate records, joined by “and”; a condition that tells them apart may be missing. Equal values may be shown once.
# Experiments:
# [1] = Solubility studies of the activators (saturated solution in isohexane or methylcyclohexane); format: physicochemical; conditions: for Solubility limit in i-hexane (mM at 25° C.) / Solubility limit in i-hexane (wt % at 25° C.): isohexane; for Solubility limit in MeCy (mM at 25° C.): methylcyclohexane
# Procedure: Solubility Studies of the Activators
# Procedure for Solid Activators.
# A saturated solution of each of the solid ammonium borate activators was prepared by stirring an excess of the activator with either isohexane or methylcyclohexane solvent for several hours at 25° C. The mixture was then filtered and a known volume of the filtrate was evaporated to dryness in a tared vial. The vial was then weighed to determine the mass of activator that was dissolved in the aliquot. The concentration of the saturated solution is presented in millimoles of activator per liter of solution (mM).
# Procedure for Activators that Form Emulsions.
# A saturated solution of the activator was prepared by slowly adding the solvent to a pre-weighed amount of the activator. The final volume was determined as the minimum amount of solvent required to convert the emulsion into a homogeneous solution. The concentration of the saturated solution is presented in millimoles of activator per liter of solution (mM). Alternatively, an emulsion of the activator was prepared by adding the solvent to an excess amount of activator. The resulting emulsion was separated from the undissolved solids by decanting the emulsion into a tared vial. Solvent was then added dropwise until the emulsion became homogeneous. The mass of the final solution was measured and then the solvent was evaporated to dryness to obtain the mass of the activator. The concentration of the saturated solution is presented in millimoles of activator per liter of solution (mM).
# [2] = as above; format: physicochemical; conditions: methylcyclohexane
# [3] = Propylene homopolymerization in parallel pressure reactor, MCN-1 with ammonium borate activators; conditions: propylene, MCN-1 = 20 nmol, activator = 20 nmol, isohexane, TNOAL 500 nmol
# Excerpt: Polymerization in Parallel Pressure Reactor
# Solvents, polymerization-grade toluene, and isohexane were supplied by ExxonMobil Chemical Company and purified by passing through a series of columns: two 500 cc Oxyclear cylinders in series from Labclear (Oakland, Calif.), followed by two 500 cc columns in series packed with dried 3 Å mole sieves (8-12 mesh; Aldrich Chemical Company), and two 500 cc columns in series packed with dried 5 Å mole sieves (8-12 mesh; Aldrich Chemical Company). 1-octene (C8) and 1-hexene (C6) (98%, Aldrich Chemical Company) were dried by stirring over NaK overnight followed by filtration through basic alumina (Aldrich Chemical Company, Brockman Basic 1).
# Solutions of the metal complexes and activators were prepared in a drybox using toluene or methylcyclohexane. Concentrations were typically 0.2 mmol/L. Tri-n-octylaluminum (TNOAL, neat, AkzoNobel) was typically used as a scavenger. Concentration of the TNOAL solution in toluene ranged from 0.5 to 2.0 mmol/L.
# Polymerizations were carried out in a parallel pressure reactor, as generally described in U.S. Pat. Nos. 6,306,658; 6,455,316; 6,489,168; WO 00/09255; and Murphy, V. et al. (2003) “A Fully Integrated High-Throughput Screening Methodology for the Discovery of New Polyolefin Catalysts: Discovery of a New Class of High Temperature Single-Site Group (IV) Copolymerization Catalysts,” J. Am. Chem. Soc., v. 125, pp. 4306-4317, each of which is fully incorporated herein by reference. […] Although the specific quantities, temperatures, solvents, reactants, reactant ratios, pressures, and other variables are frequently changed from one polymerization run to the next, the following describes a typical polymerization performed in a parallel pressure reactor.
# Catalyst systems dissolved in solution were used in the polymerization examples below, unless specified otherwise.
# RUN A: Propylene Homopolymerization (PP).
# The reactor was prepared as described above and purged with propylene. For the examples in Table 2, the catalyst and activator solutions were prepared in toluene. […] Isohexane was then injected into each vessel at room temperature followed by a predetermined amount of propylene gas. The reactor was heated to the set temperature while stirring at 800 rpm, and the scavenger, activator and catalyst solutions were injected sequentially to each vessel. The polymerization was allowed to proceed as described previously.
# A series of propylene polymerizations were performed in parallel pressure reactors (PPRs) developed by Symyx Technologies, Inc. In these polymerizations, the metallocene rac-dimethylsilyl-bis(indenyl)hafnium dimethyl (MCN-1) was used along with several different ammonium borate activators. Polymerizations were performed at 85° C. and 100° C.
# Propylene homopolymerization (PP).
# A series of propylene polymerizations were performed in the parallel pressure reactor similar to the procedure described above. In these studies rac-dimethylsilyl-bis(indenyl)hafnium dimethyl (MCN-1) was used along with ammonium borate activators.
# [4] = RUN B: ethylene-octene polymerization in parallel pressure reactor, activator diluent toluene or methylcyclohexane; conditions: ethylene-octene copolymerization; for activity, molecular weight and co-monomer incorporation with methyl cyclohexane versus toluene as activator diluent: FIGS. 2-4; for activity: Cat 1 (MCN-1)
# Procedure: RUN B: Polymerization in Parallel Pressure Reactor.
# A series of ethylene-octene polymerizations were performed in the parallel pressure reactor according to the procedure described above. […] In a typical experiment an automated syringe was used to introduce into the reactor the following reagents, if utilized, in the following order: isohexane (0.35 mL), an isohexane solution of TNOAL scavenger (0.005 M, 60 μL), additional isohexane (0.35 mL), a toluene solution of the respective polymerization catalyst (150 μL, 0.4 mM, 20 nm [cat]/100 μL [toluene]), additional isohexane (0.35 mL), a toluene or methylcyclohexane solution of the respective activator (150 μL, 0.4 mM, (20 nm [act]/100 μL[ diluent])), then additional isohexane so that the total solvent volume for each run was 5 mL. Catalyst and activator were used in a 1:1 ratio. Each reaction was performed at a specified temperature range between 50 and 120° C., typically 95° C., while applying about 100 psig of ethylene (monomer) gas. Each reaction was allowed to run for about 1 hour (˜3600 seconds) or until approximately 20 psig of ethylene gas uptake was observed, at which point the reactions were quenched with air (˜300 psig). When sufficient polymer yield was attained (e.g., at least ˜10 mg), the polyethylene product was analyzed by Rapid GPC, described below.
# In a typical experiment, the anilinium borate activators were combined with toluene or methylcyclohexane as diluent and introduced to the parallel, pressure reactor via syringe. By this mechanism of activator introduction, only well dissolved activators could be delivered to the reactor providing a means to discriminate between the polymerization performance of long chain soluble anilinium borates vs. conventional anilinium borates. Following addition of activator, the catalyst Cat 1 was introduced, via syringe as well-dissolved toluene solution and the polymerization was conducted per the methodology described above.
# [5] = activator diluent MeCy (methylcyclohexane)
Compound,Solubility limit in i-hexane (mM at 25° C.) [1] [mM],Solubility limit in i-hexane (wt % at 25° C.) [1] [wt %],Solubility limit in MeCy (mM at 25° C.) [1] [mM],Solubility limit in MeCy (wt % at 25° C.) [2] [wt %],"activity, molecular weight and co-monomer incorporation with methyl cyclohexane versus toluene as activator diluent ([4]; Cat 1)","activity [4, 5]",activity ([4]; activator diluent Toluene),further results
"CCCCCCc1ccc([NH+](C)C)cc1.Fc1c(F)c(F)c([B-](c2c(F)c(F)c(F)c(F)c2F)(c2c(F)c(F)c(F)c(F)c2F)c2c(F)c(F)c(F)c(F)c2F)c(F)c1F [Hex-DMAH-BF20, 4-hexyl-N,N-dimethylanilinium-BF20]",–,–,–,–,–,–,–,"activity ([3]; 85 °C, 135 psi): 150 kg/mmol/h and 163 kg/mmol/h and 192 kg/mmol/h; activity ([3]; 100 °C, 150 psi): 47 kg/mmol/h and 81 kg/mmol/h and 75 kg/mmol/h"
CCCCCCCCCCCCCCCCCC[NH+](C)c1ccc(CCCC)cc1.Fc1c(F)c(F)c2c(F)c([B-](c3c(F)c(F)c4c(F)c(F)c(F)c(F)c4c3F)(c3c(F)c(F)c4c(F)c(F)c(F)c(F)c4c3F)c3c(F)c(F)c4c(F)c(F)c(F)c(F)c4c3F)c(F)c(F)c2c1F [LCSA 1],–,–,–,–,remain approximately the same,332.7 kg/mmol/h and 377.7 kg/mmol/h and 393.6 kg/mmol/h and 367.2 kg/mmol/h,413.4 kg/mmol/h and 510.6 kg/mmol/h and 426.4 kg/mmol/h and 452.7 kg/mmol/h,–
CCCCCCCCCCCCCCCCCCc1ccc([NH+](C)CCCCCCCCCCCCCCCCCC)cc1.Fc1c(F)c(F)c2c(F)c([B-](c3c(F)c(F)c4c(F)c(F)c(F)c(F)c4c3F)(c3c(F)c(F)c4c(F)c(F)c(F)c(F)c4c3F)c3c(F)c(F)c4c(F)c(F)c(F)c(F)c4c3F)c(F)c(F)c2c1F [LCSA 2],–,–,–,–,remain approximately the same,451.4 kg/mmol/h and 388.5 kg/mmol/h and 412.4 kg/mmol/h and 455.5 kg/mmol/h,477.7 kg/mmol/h and 430.3 kg/mmol/h and 405.6 kg/mmol/h and 423.2 kg/mmol/h,–
CCCCCCCCCCCCCCCCCCc1ccc([NH+](CCCCCCCCCCCCCCCCCC)CCCCCCCCCCCCCCCCCC)cc1.Fc1c(F)c(F)c2c(F)c([B-](c3c(F)c(F)c4c(F)c(F)c(F)c(F)c4c3F)(c3c(F)c(F)c4c(F)c(F)c(F)c(F)c4c3F)c3c(F)c(F)c4c(F)c(F)c(F)c(F)c4c3F)c(F)c(F)c2c1F [LCSA 3],–,–,–,–,remain approximately the same,280.6 kg/mmol/h and 257.6 kg/mmol/h and 334.9 kg/mmol/h and 360.9 kg/mmol/h,290.6 kg/mmol/h and 278.0 kg/mmol/h and 289.7 kg/mmol/h and 278.3 kg/mmol/h,–
"N,N-dimethyl anilinium tetrakis(perfluorobiphenyl) [C3, reference compound]",–,–,–,–,–,–,692.3 kg/mmol/h and 711.1 kg/mmol/h and 841.8 kg/mmol/h and 803.7 kg/mmol/h,"quantity of polymer obtained with methylcyclohexane as diluent ([4]; Cat 1, activator in methylcyclohexane): insufficient for analysis"

# Second part, led by results:
Solubility limit in i-hexane (mM at 25° C.) [1] [mM],Solubility limit in i-hexane (wt % at 25° C.) [1] [wt %],Solubility limit in MeCy (mM at 25° C.) [1] [mM],Solubility limit in MeCy (wt % at 25° C.) [2] [wt %],Compound,"activity, molecular weight and co-monomer incorporation with methyl cyclohexane versus toluene as activator diluent ([4]; Cat 1)","activity [4, 5]",activity ([4]; activator diluent Toluene),further results
2.0,0.32,21,3.0,"CCCCCCCCCC[NH+](CCCCCCCCCC)c1ccc(CCCC)cc1.Fc1c(F)c(F)c([B-](c2c(F)c(F)c(F)c(F)c2F)(c2c(F)c(F)c(F)c(F)c2F)c2c(F)c(F)c(F)c(F)c2F)c(F)c1F [DDBAH-BF20, 4-butyl-N,N-didecylbenzenaminium-BF20]",–,–,–,–
2.2,0.47,17,3.3,"CCCCCCCCCC[NH+](CCCCCCCCCC)c1ccc(CCCC)cc1.Fc1c(F)c(F)c2c(F)c([B-](c3c(F)c(F)c4c(F)c(F)c(F)c(F)c4c3F)(c3c(F)c(F)c4c(F)c(F)c(F)c(F)c4c3F)c3c(F)c(F)c4c(F)c(F)c(F)c(F)c4c3F)c(F)c(F)c2c1F [DDBAH-BF28, 4-butyl-N,N-didecylbenzenaminium-BF28]",–,–,–,–
1.5,0.22,1.7,0.21,"CCCCCCCCCC[NH+](CCCCCCCCCC)c1ccc(C)cc1.Fc1c(F)c(F)c([B-](c2c(F)c(F)c(F)c(F)c2F)(c2c(F)c(F)c(F)c(F)c2F)c2c(F)c(F)c(F)c(F)c2F)c(F)c1F [DDTH-BF20, N,N-didecyl-4-methylanilinium-BF20]",–,–,–,–
1.8,0.35,3.7,0.63,"CCCCCCCCCC[NH+](CCCCCCCCCC)c1ccc(C)cc1.Fc1c(F)c(F)c2c(F)c([B-](c3c(F)c(F)c4c(F)c(F)c(F)c(F)c4c3F)(c3c(F)c(F)c4c(F)c(F)c(F)c(F)c4c3F)c3c(F)c(F)c4c(F)c(F)c(F)c(F)c4c3F)c(F)c(F)c2c1F [DDTH-BF28, N,N-didecyl-4-methylanilinium-BF28]",–,–,–,–
7.6,0.70,>180,>42,"CCCCCCCCCCCCCCCCCC[NH+](CCCCCCCCCCCCCCCCCC)c1c(C)cc(C)cc1C.Fc1c(F)c(F)c2c(F)c([B-](c3c(F)c(F)c4c(F)c(F)c(F)c(F)c4c3F)(c3c(F)c(F)c4c(F)c(F)c(F)c(F)c4c3F)c3c(F)c(F)c4c(F)c(F)c(F)c(F)c4c3F)c(F)c(F)c2c1F [DOdMH-BF28, 2,4,6-trimethyl-N,N-dioctadecylbenzenaminium-BF28]",–,–,–,–
